Source: patent US11224667B2, “11C-labeled catechol derivative, pet probe of phosphorylated tau aggregation inhibitor using the same, and production method of the same” (NATIONAL CENTER FOR GERIATRICS AND GERONTOLOGY, priority 2017, dated 2022)
Values belong to the compound of their own block, whether it stands above or below them.

Columns and labels:
[1] = system: tau protein; conditions: cited from earlier work
[2] = Stability of isolated [11C]isoproterenol solution, radiochemical purity by HPLC; type: physicochemical
Protocol: Radiochemical purity and chemical purity of [2-^11C] isoproterenol in the solution after HPLC fractionation were analyzed by HPLC (CH3CN/acetic acid-ammonium acetate (pH 5.3), 10:90; column, CAPCELL PAK SCX UG 80, 4.6 (id)×150 mm; flow rate, 1 mL/min; UV detection, 278 nm; retention time, 6.5 min). [^11C] isoproterenol was confirmed by co-injection of unlabeled isoproterenol in HPLC. In the absence of addition of tartaric acid, the radiochemical purity immediately after isolation was 96%, whereas the radiochemical purity after 60 minutes dropped to 84% (see FIG. 3). […] This is presumed to be due to inhibition of deprotonation of two adjacent phenolic hydroxyl groups present in the catechol nucleus under acidic conditions and suppression of subsequent oxidative decomposition by oxygen molecules or superoxide. Also, the chemical purity measured at the above wavelength was >93%

[3] = system: hyperphosphorylated tau-expressing mice; conditions: administered to hyperphosphorylated tau-expressing mice; cited from earlier work

Structure (SMILES): CNCC(O)c1ccc(O)c(O)c1 (stereo not drawn) [adrenaline]
inhibition of aggregation of tau protein [1]: inhibited aggregation of tau protein

radiochemical purity after 60 minutes ([2]; solution after HPLC fractionation, absence of addition of tartaric acid, 60 minutes after isolation): 84% | radiochemical purity immediately after isolation ([2]; solution after HPLC fractionation, absence of addition of tartaric acid, immediately after isolation): 96%
Structure (SMILES): CC(C)NCC(O)c1ccc(O)c(O)c1 (stereo not drawn) [[^11C] isoproterenol, [2-^11C] isoproterenol]
drop in radiochemical purity after 60 minutes ([2]; tartaric acid added, 60 minutes after isolation): no drop in radiochemical purity was observed

Structure (SMILES): CC(C)NCC(O)c1ccc(O)c(O)c1 [D/L-isoproterenol]
abnormal behavior [3]: improvement of abnormal behavior | aggregation of tau protein [3]: suppression of aggregation of tau protein | nerve cell dropout [3]: suppression of nerve cell dropout | inhibition of aggregation of tau protein [1]: particularly strongly suppresses aggregation of tau protein

Structure (SMILES): NCCc1ccc(O)c(O)c1 [dopamine]
inhibition of aggregation of tau protein [1]: inhibited aggregation of tau protein
